Test results reported in patent US8034937B2, “Azaspiro derivatives” (Hoffmann-La Roche Inc., priority 2006, dated 2011).
Counter-ions that a name gives are not always drawn.

Molecular target: T1, human V1a receptor (Homo sapiens, UniProt P37288)
T1 construct: expressed in transfected cells; host or cells: HEK293 cells, transiently transfected; membranes prepared
Assay: human V1a receptor binding (3H-Vasopressin SPA, HEK293 membranes)
Conditions: 3H-Vasopressin displacement, membranes of HEK293 cells transiently transfected with human V1a; Ki by Cheng-Prussoff; read-out: pKi (hV1a) (converted)
Protocol: The human V1a receptor was cloned by RT-PCR from total human liver RNA. The coding sequence was subcloned in an expression vector after sequencing to confirm the identity of the amplified sequence. […] Cell membranes were prepared from HEK293 cells transiently transfected with the expression vector and grown in 20 liter fermenters with the following protocol.
50 g of cells were resuspended in 30 ml freshly prepared ice cold Lysis buffer (50 mM HEPES, 1 mM EDTA, 10 mM MgCl2 adjusted to pH=7.4+complete cocktail of protease inhibitor (Roche Diagnostics)); homogenized with Polytron for 1 min, and sonicated on ice for 2×2 minutes at 80% intensity (Vibracell sonicator). The preparation was centrifuged 20 min at 500 g at 4° C., the pellet was discarded and the supernatant centrifuged 1 hour at 43,000 g at 4° C. (19,000 rpm). The pellet was resuspended in 12.5 ml Lysis buffer+12.5 ml Sucrose 20% and homogenized using a Polytron for 1-2 min. The protein concentration was determined by the Bradford method and aliquots were stored at −80° C. until use. For binding studies 60 mg Yttrium silicate SPA beads (Amersham) were mixed with an aliquot of membrane in binding buffer (50 mM Tris, 120 mM NaCl, 5 mM KCl, 2 mM CaCl2, 10 mM MgCl2) for 15 minutes with mixing. 50 ul of bead/membrane mixture was then added to each well of a 96 well plate, followed by 50 ul of 4 nM 3H-Vasopressin (American Radiolabeled Chemicals). For total binding measurement 100 ul of binding buffer were added to the respective wells, for non-specific binding 100 ul of 8.4 mM cold vasopressin and for compound testing 100 ul of a serial dilution of each compound in 2% DMSO. The plate was incubated 1 h at room temperature, centrifuged 1 min at 1000 g and counted on a Packard Top-Count. Non-specific binding counts wee subtracted from each well and data was normalized to the maximum specific binding set at 100%. To calculate an IC 50 the curve was fitted using a non-linear regression model (XLfit), and the Ki was calculated using the Cheng-Prussoff equation.

T1 sequence (P37288 whole entry): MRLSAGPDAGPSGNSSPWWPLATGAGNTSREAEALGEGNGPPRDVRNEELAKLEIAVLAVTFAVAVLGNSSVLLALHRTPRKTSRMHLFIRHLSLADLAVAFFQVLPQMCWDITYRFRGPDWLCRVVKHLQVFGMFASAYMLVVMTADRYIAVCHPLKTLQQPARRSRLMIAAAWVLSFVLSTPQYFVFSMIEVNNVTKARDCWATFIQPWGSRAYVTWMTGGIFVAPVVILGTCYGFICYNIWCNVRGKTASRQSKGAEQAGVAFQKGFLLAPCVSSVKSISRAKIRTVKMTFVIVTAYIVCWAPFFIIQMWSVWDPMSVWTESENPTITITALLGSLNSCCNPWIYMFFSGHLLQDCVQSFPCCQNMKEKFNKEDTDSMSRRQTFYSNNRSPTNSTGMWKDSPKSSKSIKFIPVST

With O=C(c1c[nH]c2cc(Cl)ccc12)N1CCC2(CC1)OCc1cccnc12 [Compound 6, 1′-[(6-Chloro-1H-indol-3-yl)carbonyl]-5H-spiro[furo[3,4-b]pyridine-7,4′-piperidine]] the Ki was 5.25 nM.
CN1CCC[C@H]1Cn1cc(C(=O)N2CCC3(CC2)OCc2cccnc23)c2ccc(Cl)cc21 [Compound 9, 1′-[(6-Chloro-1-1{[(2S)-1-methylpyrrolidin-2-yl]methyl}-1H-indol-3-yl)carbonyl]-5H-spiro[furo[3,4-b]pyridine-7,4′-piperidine]] showed a Ki of 1 nM.
With O=C(c1cn(C[C@@H]2CCCN2)c2cc(Cl)ccc12)N1CCC2(CC1)OCc1ncccc12 [Compound 3, 1′-({6-Chloro-1-[(2S)-pyrrolidin-2-ylmethyl]-1H-indol-3-yl}carbonyl)-7H-spiro[furo[3,4-b]pyridine-5,4′-piperidine]dihydrochloride] the Ki was 25.1 nM.
For CC(C)(C)OC(=O)N1CCC[C@H]1Cn1cc(C(=O)N2CCC3(CC2)OCc2ccncc23)c2ccc(Cl)cc21 [Compound 11, tert-Butyl (2S)-2-{[6-chloro-3-(1H, 1′H-spiro[furo[3,4-c]pyridine-3,4′-piperidin]-1′-ylcarbonyl)-1H-indol-1-yl]methyl}pyrrolidine-1-carboxylate], the Ki was 23.4 nM.
In the case of CC(C)(C)OC(=O)N1CCC[C@H]1Cn1cc(C(=O)N2CCC3(CC2)OCc2cccnc23)c2ccc(Cl)cc21 [Compound 7, tert-Butyl (2S)-2-{[6-chloro-3-(1′H,5H-spiro[furo[3,4-b]pyridine-7,4′-piperidin]-1′-ylcarbonyl)-1H-indol-1-yl]methyl}pyrrolidine-1-carboxylate], the Ki is reported as 22.9 nM.
O=C(c1cn(Cc2cc(F)cc(F)c2)c2cc(Cl)ccc12)N1CCC2(CC1)OCc1cccnc12 [Compound 14, 1′-{[6-Chloro-1-(3,5-difluorobenzyl)-1H-indol-3-yl]carbonyl}-5H-spiro[furo[3,4-b]pyridine-7,4′-piperidine]] gave a Ki of 4.27 nM.
CN1CCC[C@H]1Cn1cc(C(=O)N2CCC3(CC2)OCc2ccncc23)c2ccc(Cl)cc21 [Compound 13, 1′-[(6-Chloro-1-{[(2S)-1-methylpyrrolidin-2-yl]methyl}-1H-indol-3-yl)carbonyl]-1H-spiro[furo[3,4-c]pyridine-3,4′-piperidine]] was tested, and the Ki was 1.1 nM.
With O=C(c1cn(C[C@@H]2CCCN2)c2cc(Cl)ccc12)N1CCC2(CC1)OCc1cccnc12 [Compound 8, 1′-({6-Chloro-1-[(2S)-pyrrolidin-2-ylmethyl]-1H-indol-3-yl}carbonyl)-5H-spiro[furo[3,4-b]pyridine-7,4′-piperidine]dihydrochloride] the Ki was 3.31 nM.
Compound CN1CCC[C@H]1Cn1cc(C(=O)N2CCC3(CC2)OCc2ncccc23)c2ccc(Cl)cc21 [Compound 4, 1′-[(6-Chloro-1-{[(2S)-1-methylpyrrolidin-2-yl]methyl}-1H-indol-3-yl)carbonyl]-7H-spiro[furo[3,4-b]pyridine-5,4′-piperidine]] has a Ki of 1.55 nM.
With O=C(c1c[nH]c2cc(Cl)ccc12)N1CCC2(CC1)OCc1ccncc12 [Compound 10, 1′-[(6-Chloro-1H-indol-3-yl)carbonyl]-1H-spiro[furo[3,4-c]pyridine-3,4′-piperidine]] the Ki was 8.71 nM.
Compound O=C(c1cn(Cc2cc(F)cc(F)c2)c2cc(Cl)ccc12)N1CCC2(CC1)OCc1ncccc12 [Compound 5, 1′-{[6-Chloro-1-(3,5-difluorobenzyl)-1H-indol-3-yl]carbonyl}-7H-spiro[furo[3,4-b]pyridine-5,4′-piperidine]] has a Ki of 4.37 nM.
O=C(c1cn(C[C@@H]2CCCN2)c2cc(Cl)ccc12)N1CCC2(CC1)OCc1ccncc12 [Compound 12, 1′-({6-Chloro-1-[(2S)-pyrrolidin-2-ylmethyl]-1H-indol-3-yl}carbonyl)-1H-spiro[furo[3,4-c]pyridine-3,4′-piperidine]dihydrochloride] showed a Ki of 4.57 nM.
